Laboratory results taken from patent US5258395A, “Thiazole compounds as inhibitors of SRS-A” (Yamanouchi Pharmaceutical Co., Ltd., priority 1984, dated 1993).
Blank lines part the entries; values can stand above or below the compound they belong to.

Tests used:
[1] = system: SRS-A-induced contraction of guinea pig ileum; experiment: Inhibition of SRS-A-induced contraction of guinea pig ileum; conditions: submaximal concentration of SRS-A (derived from guinea-pig lung), 20 min incubation, read-out: Anti-SRS-A GP ileum IC50
Method: (§1) Initiation of SRS-A- and LTD4 -Induced Contraction of Guinea Pig Ileum and Trachea
(§2) Method: Male Hartley guinea-pigs, weighing 500 to 700 g were killed by a blow on the head. The ileum and tracheal strips prepared according to the method of Constantine (1965) were suspended with 1.0 g tension in an organ bath containing 10 ml of Tyrode's solution equilibrated with a mixture of 95% O2 and 5% CO2 at 37° C. The tissues were equilibrated for 60 min.; during this period the Tyrode solution was replaced every 15 min. and the loading tension was adjusted to 1.0 g. The developed tension of the tissues was measured isometrically with a strain gauge transducer, and recorded on a Recticorder. Both the contractile response of the ileum to submaximal concentration of SRS-A (derived from guinea-pig lung) and the tracheal response to 10^-8 M LTD4 were measured in the absence and then the presence of various concentrations of test compounds. The incubation time of the compounds was 20 min.

SRS-A = conditions: cited from earlier work
[2] = cited from earlier work
[3] = system: LTD4-induced contraction of guinea pig trachea; experiment: Inhibition of LTD4-induced contraction of guinea pig trachea; conditions: 10^-8 M LTD4, 20 min incubation, read-out: Anti-LTD4 GP trachea IC50
Method: as §1, §2

[4] = system: SRS-A-mediated anaphylactic asthma; experiment: Inhibition of SRS-A-mediated anaphylactic asthma in conscious guinea-pigs; assay type: in vivo, guinea pig; conditions: for Time to onset of cough / Mortality: 30 min before antigen challenge; for Time to onset of cough: N=8
Method: Inhibition of SRS-A-Mediated Anaphylactic Asthma in Conscious Guinea-Pigs
Method: Male Harley guinea-pigs, weighing 370 to 410 g were passively sensitized by intravenously injecting 1 ml/kg of rabbit […] anti-bovine serum albumin serum (PHA titer: 20480). Twenty-four hours after the sensitization, indomethacine (2 mg/kg), mepyramine (2 mg/kg) and propranolol (0.3 mg/kg) were injected into the saphenous vein 20, 5 and 5 min., respectively, prior to the antigen challenge. Then, animals were placed in an 11 liter chamber connected to a glass nebulizer, and 1% solution of bovin serum albumin was sprayed into the chamber for 30 seconds. The animals were exposed to the antigen aerosol for 2 min. and observed for 15 min. after challenge. The time from the start of inhalation to the onset of cough and the mortality were recorded. Test compounds were orally administered 30 min. before antigen challenge.
^a) Animals were pretreated with mepyramine (2 mg/kg i.v.),
propranolol (0.3 mg/kg i.v.) and indomethacine (2 mg/kg i.v.) 5, 5 and 20
min., respectively, prior to antigen challenge.
^b) Test compound was orally administered 30 min. before antigen

rats = experiment: Toxicity, oral administration to rats; assay type: in vivo; conditions: orally
mice = experiment: Toxicity, oral administration to mice; assay type: in vivo; conditions: orally

IC50 [1]: 180 nM
SMILES: CCCc1c(OCCCSc2nnc(N)s2)ccc(C(C)=O)c1O [Example 2, 4-[3-[(5-amino-1,3,4-thiadizol-2-yl)thio]propoxy]-2-hydroxy-3-propylacetophenone]

SMILES: CCCc1c(OCC(O)COc2ccc3c(=O)cc(C(=O)O)oc3c2CCC)ccc(C(C)=O)c1O (stereo not shown) [FPL 55712]
anti-SRS-A activity in isolated tissues (SRS-A): potent anti-SRS-A activity in isolated tissues
biological half life ([2]; in vivo): very short
absorption by oral route ([2]; oral route): very poor

IC50 [1]: 150 nM
SMILES: CCCc1c(OCCCCSc2nnc(SCC(=O)O)s2)ccc(C(C)=O)c1O [Example 23, [[5-[[4-(4-acetyl-3-hydroxy-2-propylphenoxy)butyl]thio]-1,3,4-thiadiazol-2-yl]thio]acetic acid]

IC50 [1]: 160 nM
IC50 [3]: 420 nM
SMILES: CCCc1c(OCCCSc2nnc(SCC(=O)N(C)O)s2)ccc(C(C)=O)c1O [Example 51, 2-[[5-[[3-(4-acetyl-3-hydroxy-2-propylphenoxy)propyl]thio]-1,3,4-thiadiazol-2-yl]thio]-N-hydroxy-N-methylacetamide]

IC50 [1]: 190 nM
SMILES: CCCc1c(OCCCCCSc2nnc(SCC(=O)O)s2)ccc(C(C)=O)c1O [Example 24, [[5-[[5-(4-Acetyl-3-hydroxy-2-propylphenoxy)pentyl]thio]-1,3,4-thiadiazol-2-yl]thio]acetic acid]

IC50 [1]: 64 nM
SMILES: CCCc1c(OCCCSc2nnc(SCCCCC(=O)O)s2)ccc(C(C)=O)c1O [Example 41, 5-[[5-[[3-(4-Acetyl-3-hydroxy-2-propylphenoxy)propyl]thio]-1,3,4-thiadiazol-2-yl]thio]valeric acid]

IC50 [1]: 52 nM
SMILES: CCCc1c(OCCCSc2cc(C(=O)O)nc(SC)n2)ccc(C(C)=O)c1O [Example 37, 6-[[3-(4-Acetyl-3-hydroxy-2-propylphenoxy)propyl]thio]-2-methylthio-4-pyrimidinecarboxylic acid]

IC50 [1]: 130 nM
SMILES: CCCc1c(OCCCSc2nnc(SCCCCCC(=O)O)s2)ccc(C(C)=O)c1O [Example 42, 6-[[5-[[3-(4-Acetyl-3-hydroxy-2-propylphenoxy)propyl]thio]-1,3,4-thiadizol-2-yl]thio]hexanoic acid]

SMILES: CCCc1c(OCCCSc2nnc(SCC(=O)O)s2)ccc(C(C)=O)c1O [Example 21, [[5-[[3-(4-acetyl-3-hydroxy-2-propylphenoxy)propyl]thio]-1,3,4-thiadiazol-2-yl]thio]acetic acid]
IC50 [1]: 60 nM
IC50 [3]: 130 nM
Inhibition of SRS-A-mediated anaphylactic asthma (in words) ([4]; 3 mg/kg p.o.): tended to inhibit the SRS-A-mediated anaphylactic asthma in conscious guinea-pigs, but this effect was not significant
Time to onset of cough ([4]; 3 mg/kg p.o., control 293 ± 22): 377 ± 51 s
Mortality ([4]; 3 mg/kg p.o., control 6/8): 5/8
Inhibition of SRS-A-mediated anaphylactic asthma (in words) ([4]; 10 mg/kg p.o. or higher): significantly inhibited the SRS-A-mediated anaphylactic asthma
Time to onset of cough ([4]; 10 mg/kg p.o., control 281 ± 19, * significant vs control): 397 ± 42 s
Mortality ([4]; 10 mg/kg p.o., control 7/8, * significant vs control): 2/8
Time to onset of cough ([4]; 30 mg/kg p.o., control 281 ± 11, ** p < 0.01 vs control): 457 ± 42 s
Mortality ([4]; 30 mg/kg p.o., control 7/8, * significant vs control): 2/8
minimum fatal dose (rats): more than 1000 mg/kg
minimum fatal dose (mice): more than 1000 mg/kg

IC50 [1]: 91 nM
SMILES: CCCc1c(OCCCSc2nnc(NC(=O)CC(=O)O)s2)ccc(C(C)=O)c1O [Example 33, 3-[[5-[[3-(4-acetyl-3-hydroxy-2-propylphenoxy)propyl]thio]-1,3,4-thiadiazol-2-yl]amino]-3-oxopropionic acid]

IC50 [1]: 110 nM
SMILES: CCCc1c(OCCCSc2nnc(S)s2)ccc(C(C)=O)c1O [Example 7, 2-Hydroxy-4-[[3-(5-mercapto-1,3,4-thiadiazol-2-yl)thio]propoxy]-3-propylacetophenone]

IC50 [1]: 120 nM
SMILES: CCCc1c(OCCCSc2nnc(SCCC(=O)O)s2)ccc(C(C)=O)c1O [Example 26]

IC50 [1]: 190 nM
SMILES: CCCc1c(OCCCSc2snc(O)c2C(=O)O)ccc(C(C)=O)c1O [Example 27, 5-[[3-(4-acetyl-3-hydroxy-2-propylphenoxy)propyl]thio]-3-hydroxy-4-isothiazol carboxylic acid]

IC50 [1]: 38 nM
IC50 [3]: 230 nM
SMILES: CCCc1c(OCCCSc2nnc(SCCCC(=O)O)s2)ccc(C(C)=O)c1O [Example 38, 4-[[5-[[3-(4-Acetyl-3-hydroxy-2-propylphenoxy)propyl]thio]-1,3,4-thiadiazol-2-yl]thio]butyric acid]

IC50 [1]: 140 nM
SMILES: CCCc1c(OCCCSc2nnc(NC(=O)C(=O)O)s2)ccc(C(C)=O)c1O [Example 36, N-[5-[[3-(4-Acetyl-3-hydroxy-2-propylphenoxy)propyl]thio]-1,3,4-thiadizol-2-yl]oxamic acid]

IC50 [1]: 130 nM
SMILES: CCCc1c(OCCCSc2nnc(SC(C)CCC(=O)O)s2)ccc(C(C)=O)c1O (stereo not shown) [Example 44, 4-[[5-[[3-(4-Acetyl-3-hydroxy-2-propylphenoxy)propyl]thio]-1,3,4-thiadizol-2-yl]thio]valeric acid]
